These are literature values, as cited in patent US10494420B2, “Mast cell stabilizers for treatment of hypercytokinemia and viral infection” (priority 2016, dated 2019).

One series relates to H5N1 Influenza Virus. To be noted: mouse, in vivo.
The conditions of series [1]: intranasal delivery versus any other route, rabbits.

Consider `CN1CCC(=C2c3ccccc3CC(=O)c3sccc32)CC1` [ketotifen], for which, in the series on H5N1 Influenza Virus, the impact on survival result is “increased when the compounds were combined” and the survival of mice entry was “increase survival of mice”. In addition, the bioavailability result in series [1] is listed as “more bioavailable using intranasal delivery”. Moreover, in the series on mast cells, the “mast cell degranulation and release of mediators (histamine, TNF-α, prostaglandins, leukotrienes, interleukins)” value is listed as “inhibit mast cell degranulation”.
